Values of other authors in PMC10878532, “Sperm Toolbox—A selection of small molecules to study human spermatozoa” (PLOS ONE, 2024).
Where a name gives a salt, the structure may show the parent alone.

Test system: spermatozoa
Design: method as in per compound as listed in column References of Table 1
Conditions: summaries of reported effects; ref per compound as listed in Table 1; cited from earlier work

Molecule | Published Phenotype
Nc1nonc1C(=O)c1cccc(OCc2nc3ccccc3[nH]2)c1 [ASI-8] | Blocks soluble adenyl cyclase (sAC)
COc1cc2nc(N(C)CCCNC(=O)C3CCCO3)nc(N)c2cc1OC (stereo not shown) [Alfuzosin] | Interferes with ejaculation
CCCCC/C=C\C/C=C\C/C=C\C/C=C\CCCC(=O)NCCO [Anandamide] | Reduces sperm motility
CC(=O)N1CCC(C(=O)N(CCCN2CCN(Cc3ccc(F)cc3)CC2)c2ccc(C)c(Cl)c2)CC1 [B07 hydrochloride] | Reduction of sperm motility
CC1(C)CC=C(c2ccccc2)c2cc(/C=C/c3ccc(C(=O)O)cc3)ccc21 [BMS-189453] | Interferes with spermatogenesis
Cn1c(=O)c2c(-c3ccccc3)n3c(c2n(C)c1=O)[C@H](c1ccc(Br)o1)Oc1ccc(C(=O)O)cc1-3 [BPO-27] | CTFR inhibitor patent
Oc1c(Cl)cc(Cl)cc1Sc1cc(Cl)cc(Cl)c1O [Bithionol] | Blocks sAC
O=C(O)c1ccc(/C=C2/SC(=S)N(c3cccc(C(F)(F)F)c3)C2=O)cc1 [CTFRinh-172] | Blocks progesterone induced acrosome reaction; blocks sperm hyperactivation; blocks recombinant ZP3 induced acrosome reaction
CCOC(=O)CSc1nc(=O)c(NCC(=O)OC)n[nH]1 [Compound B4] | Reduces sperm motility
OCCN(CCO)c1nc(N2CCCCC2)c2nc(N(CCO)CCO)nc(N3CCCCC3)c2n1 [Dipyridamole] | Enhances sperm motility
CCN(CC)C(=S)SSC(=S)N(CC)CC [Disulfiram] | immotile sperm; spermicidal
COc1ccc2nc([S@@+]([O-])Cc3ncc(C)c(OC)c3C)[nH]c2c1 [Esomeprazole] | Reduces sperm motility
COC(=O)c1c(C)[nH]c(C)c1C(=O)c1ccccc1Cc1ccccc1 [FPL 64176] | Modulates evoked Ca^2+ response
CC(C)C(C(=O)OC(C#N)c1cccc(Oc2ccccc2)c1)c1ccc(Cl)cc1 (stereo not shown) [Fenvalerate] | Blocks progesterone induced acrosome reaction
C=C[C@@]1(C)CC(=O)[C@]2(O)[C@@]3(C)[C@@H](O)CCC(C)(C)[C@@H]3[C@H](O)[C@H](OC(C)=O)[C@@]2(C)O1 [Forskolin] | Stimulates acrosome reaction
CN(C)CCCn1cc(C2=C(c3c[nH]c4ccccc34)C(=O)NC2=O)c2ccccc21 [GF 109203X] | Blocks progesterone induced acrosome reaction; blocks progesterone induced Ca^2+ response
CCc1cc(Nc2nccc(-c3c(-c4ccc(OC)c(C(=O)Nc5c(F)cccc5F)c4)nc4ccccn34)n2)c(OC)cc1N1CCC(N2CCN(S(C)(=O)=O)CC2)CC1 [GSK1904529A] | Inhibition of hyperactivation
COc1cc2ncn(-c3cc(OCc4ccccc4C(F)(F)F)c(C(N)=O)s3)c2cc1OC [GW 843682X] | Enhances sperm motility
O=c1c(-c2ccc(O)cc2)coc2cc(O)cc(O)c12 [Genistein] | Blocks progesterone induced acrosome reaction; blocks progesterone induced Ca^2+ response
Cc1cc2c(C(C)C)c(O)c(O)c(C=O)c2c(O)c1-c1c(C)cc2c(C(C)C)c(O)c(O)c(C=O)c2c1O [Gossypol] | Causes azoospermia

Molecule | Published Phenotype
O=S(=O)(NCCNC/C=C/c1ccc(Br)cc1)c1cccc2cnccc12 [H 89 dihydrochloride] | Evokes Ca^2+ signaling in sperm cells
O=C(c1cccs1)c1no[n+]([O-])c1C(=O)c1cccs1 [HC-056456] | Blocks Ca^2+ and Na^+ entry; blocks onset of hyperactive motility
CO[C@H]1[C@@H](OC)C[C@H](C)[C@@H](OC)C2=CC(=O)C=C(NC(=O)/C(C)=C/C=C\[C@H](OC)[C@@H](OC(N)=O)/C(C)=C/[C@@H]1C)C2=O [Herbimycin a] | Blocks progesterone induced acrosome reaction; blocks progesterone induced Ca^2+ response
Oc1c(Cl)cc(Cl)c(Cl)c1Cc1c(O)c(Cl)cc(Cl)c1Cl [Hexachlorophene] | Reduces sperm motility; blocks sAC
CC(C)Cn1c(=O)n(C)c(=O)c2[nH]cnc21 [IBMX] | Modulates capacitation
CC(C)Cn1cnc2c(N)nc3ccccc3c21 [Imiquimod] | Reduction of sperm motility; only sperm with X chromosome
Cc1sc2c(c1C)C(c1ccc(Cl)cc1)=N[C@@H](CC(=O)OC(C)(C)C)c1nnc(C)n1-2 [JQ1] | Interferes with spermatogenesis; reduces sperm count; reduces motility
COc1cc(SC)ccc1C(=O)N1CCC(Cc2ccccc2)CC1 [JX 401] | Modulates Ca^2+ response
CCCCCCOC(=O)[C@]1(O)C[C@@H]2O[C@@]1(C)n1c3ccccc3c3c4c(c5c6ccccc6n2c5c31)C(=O)NC4 [KT 5720] | Evokes Ca^2+ signaling in sperm
Nc1nc(Cl)cc(N(Cc2cccs2)C2CC2)n1 [LRE1] | Prevents hyperactivation
CC(C)c1ccc2c(c1)CC[C@H]1[C@](C)(CN)CCC[C@]21C [Leelamine hydrochloride] | Modulates P4 evoked Ca^2+ response
CCCCCCCCCCCCCCCCOCC(COCC(F)(F)F)OP(=O)(O)OC (stereo not shown) [MJ33] | Prevents capacitation-associated tyrosine phosphorylation by PKA
COCC(=O)O[C@]1(CCN(C)CCCc2nc3ccccc3[nH]2)CCc2cc(F)ccc2[C@@H]1C(C)C [Mibefradil] | Blocks progesterone induced Ca^2+ response
CCCCN1C[C@H](O)[C@@H](O)[C@H](O)[C@H]1CO [Miglustat] | Interferes with spermatogenesis
CC(C)[C@H]1c2ccc(F)cc2CC[C@@]1(CCN(C)CCCc1nc2ccccc2[nH]1)OC(=O)C1CC1 [NNC 55–0396 dihydrochloride] | Blocks ccl-20 induced Ca^2+ response; Modulates CatSper
N=C(N)c1ccc2cc(OC(=O)c3ccc(N=C(N)N)cc3)ccc2c1 [Nafamostat] | Interferes with liquefaction; reduces sperm motility
O=C(Nc1ccc([N+](=O)[O-])cc1Cl)c1cc(Cl)ccc1O [Niclosamide] | Shape abnormality
O=C(O)c1cccnc1Nc1cccc(C(F)(F)F)c1 [Niflumic acid] | Blocks acrosome reaction induced by recombinant rhZP3
Cc1ccc(S(=O)(=O)c2c(N)n(CC(O)c3ccc([N+](=O)[O-])cc3)c3nc4ccccc4nc23)cc1 (stereo not shown) [Oprea1_544341] | Reduces sperm motility; role of glycolysis in sperm motility
C[C@@H]1O[C@@H](O[C@H]2C[C@@H](O)[C@]3(CO)[C@H]4[C@H](O)C[C@]5(C)[C@@H](C6=CC(=O)OC6)CC[C@]5(O)[C@@H]4CC[C@]3(O)C2)[C@H](O)[C@H](O)[C@H]1O [Ouabain] | Reduces sperm motility

Molecule | Published Phenotype
c1ccc2c(c1)SCc1c-2[nH]c2ccccc12 [PD 146176] | Antagonizing negative effects of ROS on sperm function such as acrosome reaction
CN(c1ccccc1CNc1nc(Nc2ccc3c(c2)CC(=O)N3)ncc1C(F)(F)F)S(C)(=O)=O [PF 431396] | Blocks capacitation
Cc1[nH]c(/C=C2\C(=O)Nc3ccc(S(=O)(=O)Cc4c(Cl)cccc4Cl)cc32)c(C)c1C(=O)N1CCC[C@@H]1CN1CCCC1 [Pha-665752] | Modulates P4 evoked Ca^2+ response
c1cnc2c(c1)ccc1cccnc12 [Phenanthroline] | Inhibit proteolytic activity of PSA
COC(=O)[C@]1(C)CC[C@]2(C)CC[C@]3(C)C4=CC=C5C(=CC(=O)C(O)=C5C)[C@]4(C)CC[C@@]3(C)[C@@H]2C1 [Pristimerin] | Modulates sperm motility; reduces progesterone induced Ca^2+ response
CCOCc1nc2c(N)nc3ccccc3c2n1CC(C)(C)O [Resiquimod] | Reduction of sperm motility; only sperm with X chromosome
[Na+].[Na+].[Na+].[O]=[V]([O-])([O-])[O-] [Sodium orthovanadate] | Blocks progesterone induced acrosome reaction; blocks progesterone induced Ca^2+ response
CC(C)(O)c1ccn2c(-c3ccc(F)c(-c4ccc(F)cc4C#N)c3)cnc2c1F [TP 003] | Enhances sperm motility
C=CC[C@@H]1/C=C(\C)C[C@H](C)C[C@H](OC)[C@H]2O[C@@](O)(C(=O)C(=O)N3CCCC[C@H]3C(=O)O[C@H](/C(C)=C/[C@@H]3CC[C@@H](O)[C@H](OC)C3)[C@H](C)[C@@H](O)CC1=O)[C@H](C)C[C@@H]2OC [Tacrolimus] | Blocks progesterone induced acrosome reaction
COc1cn(-c2ccc(-n3cccn3)cc2F)nc(-c2ccnn2-c2ccccc2)c1=O [Tak-063] | Enhances sperm motility
CCOc1ccccc1OCCN[C@H](C)Cc1ccc(OC)c(S(N)(=O)=O)c1 [Tamsulosin] | Interferes with ejaculation
O=c1sn(-c2cccc3ccccc23)c(=O)n1Cc1ccccc1 [Tideglusib] | Spermicidal; vaginal treatment
Nc1ccc(-c2ccc3ncc4ccc(=O)n(-c5cccc(C(F)(F)F)c5)c4c3c2)cn1 [Torin 2] | Enhances sperm motility
COc1ccc(CCCN2CCC(COC(c3ccccc3)c3ccccc3)CC2)cc1 [UK 78282 hydrochloride] | Modulates Ca^2+ response
O.O.O.OO.OO.[K+].[OH-].[V].c1cnc2c(c1)ccc1cccnc12 [bpV(phen)] | Blocks progesterone induced acrosome reaction; blocks progesterone induced Ca^2+ response
CC(C)(C)c1ccc(S(=O)(=O)Nc2cnc3[nH]c(C(=O)N[C@H]4CCC[C@H]4O)c(-c4ccccc4)c3c2)cc1 [compound 68853496] | Patent; sAC inhibitor
NVP-AEW541 | Inhibition of hyperactivity
Urinastatin (protein, UniProt P02760 206-352, looked up, Inter-alpha-trypsin inhibitor light chain, interferes with liquefaction) Inter-alpha-trypsin inhibitor …: AVLPQEEEGSGGGQLVTEVTKKEDSCQLGYSAGPCMGMTSRYFYNGTSMACETFQYGGCMGNGNNFVTEKECLQTCRTVAACNLPIVRGPCRAFIQLWAFDAVKGKCVLFPYGGCQGNGNKFYSEKECREYCGVPGDGDEELLRFSN | Interferes with liquefaction; reduces sperm motility
